# Where no end group is shown, it is not given here.
# What was measured:
# WT and MT HEK293 cells = experiment: Cell aggregation assay, mixed dye-labelled WT and MT cells; assay type: cell-based; conditions: WT mixed with MT cells; 12 h
# Description: FIGS. 9A-F show VCIP mediates heterophilic cell-cell interactions. Magnification, 200×. Bar, […]. *, P<0.05. The images of cell aggregates appear out of focus. FIG. 9A: Representative photomicrograph of a mixture of WT and MT cells labeled with red (Dil) and green (DiO) fluorescent dyes at 0 h. FIG. 9B: Small and large cell-aggregates were visible after 6 h; green arrowheads indicate the most productive cell aggregation (yellow). FIG. 9C: Representative large cell aggregates are shown after 12 h. FIG. 9D: Cells co-incubated with the GRGDSP peptide for 12 h. FIG. 9E: Cells co-incubated with anti-VCIP-RGD antibody (25 μg/ml) after 12 h. All experiments were performed at least three times in triplicates.
# To monitor aggregation, cells were labeled with optimal non-toxic concentrations of fluorescent dyes. This assay was performed essentially according to the protocol described by Niessen and Gumbiner (2002), with minor modifications. […] The inhibitory effects of EDTA, peptides and antibodies on cell aggregation were determined at the end of 12 h. […] Experiments were performed at least three times with each time point analyzed in triplicate. Only productive cell aggregates (yellow) were counted. […] Numbers were expressed as the percentage of total aggregates counted. […]
# [1] = system: SW480 cells on monolayer HUVECs; experiment: Adhesion of SW480 cells to HUVEC monolayer; assay type: cell-based, human; conditions: pre-incubation; GRGDSP 10, 20 μM; antibody 20, 40 μg/ml; 1 hr
# Description: FIGS. 7A-O show the effects of VCIP on adhesion of cadherin-deficient SW480 cells to HUVECs monolayer. SW480-C, SW480-WT, and SW480-MT cells were non-enzymatically detached from dishes, washed, passed through a cell strainer, counted, and labeled with a fluorescent dye (red) prior to experiments. HUVECs were seeded onto 12-well dishes in complete media and allowed to form a 100% confluent monolayer on the day of assay. Monolayer HUVECs were washed once each with PBS and HCMF, and then preincubated in HCMF supplemented with Ca^2+/Mg^2+ for 10 min at 37° C. SW480 cells (0.25×10^6) were finely resuspendend in 500 μl of HCMF buffer supplemented with Ca^2+/Mg^2+, layered onto the monolayer, and allowed to attach at 37° C. for 1 hr. Unattached cells were removed by washing with PBS and adherent cells were fixed with 4% paraformaldehyde. The number of cells adhered to the monolayer were determined using a phase-contrast microscope. Experiments were performed at least three times in triplicates, with three independent clones. […] In each experiment, the relative percentage of cell adhesion was calculated and presented as mean±SD. […] Data are expressed as mean±S.D. (n≧7), *P<0.05. […]
# p120catenin = experiment: Far-western assay with GST-PAP2b-cyto fusion protein; assay type: binding, human; conditions: 2 μg/ml fusion protein
# Description: FIGS. 17A-H show interaction of PAP2b/VCIP with p120 catenin in endothelial cells. FIGS. 17A-B: Clarified cell lysates were prepared from endothelial cells infected with indicated PAP2b retroviral constructs A-E as shown in FIG. 14 and subjected to immunoprecipitation with: anti-HA (lanes 1, 2, 4, 5 and 6) or anti-p120 catenin (lane 3) and analyzed by immunoblotting with the indicated antibodies. FIGS. 17C-H: Far western analysis. Endothelial cells were solubilized in RIPA buffer, and immunoprecipitated using indicated antibodies (5 μg/1.5 mg protein). The membrane shown in FIG. 17C was incubated with 2 μg/ml of Gst-PAP2b-cyto fusion protein for 1 hour, washed with 1×TBS+tween (0.1%) and analyzed by immunoblotting with anti-Gst monoclonal antibodies (2 μg/ml). Individual lanes from the blot was excised and probed with: anti-VE-cadherin (FIG. 17D), anti-p120ctn (FIG. 17E), anti-β-catenin (FIG. 17F), anti-γ-catenin (FIG. 17G), and β1-integrin (FIG. 17H) monoclonal antibodies. […]
# To further substantiate that the C-terminal cytoplasmic domain of PAP2b was indeed the region involved in the interaction, far-western assay (Wary et al., 1996) was performed using recombinant affinity purified GST-PAP2b-cyto fusion protein as follows. […] After rinsing with TBS, pH 7.5, the membrane was incubated with anti-Gst mouse monoclonal antibodies and detected as previously described (Schor et al., 1996). […]
Substance,inhibition of cell aggregation (WT and MT HEK293 cells),blocking of adhesion of pLNCX2-VCIP-RGD SW480 cells to monolayer HUVECs [1],interaction with p120catenin (p120catenin),"reaction with VE cadherin, β- and γ-catenin, or β1-integrin polypeptides (p120catenin)"
GRADSP [control peptide],did not,–,–,–
GRGDSP (CHAIN a peptide containing RGD sequence),dose-dependently inhibited cell aggregation,blocked,–,–
GST-PAP2b-c-cyto: recombinant affinity purified GST fusion of the C-terminal cytoplasmic domain of PAP2b (LSLPAPAIRKEILSPVDIIDRNNHHNMM; also: GST fusion),–,–,sufficient to interact with p120catenin,did not react

# Source: patent US20050002904A1, “Uses of vascular endothelial growth factor and type I collagen inducible protein (VCIP)” (priority 2003, published 2005)
